Laboratory results reported in patent US20250222116A1, “PARP-1 DEGRADATION AGENT AND USE THEREOF” (XIZANG HAISCO PHARMACEUTICAL CO., LTD., priority 2021, published 2025).

Experiments:
PARP1 [1] = target: T1, PARP1 (Homo sapiens (Human), UniProt P09874); test: PARP1 protein expression level in MDA-MB-436 cells; type: cell-based; details: 24 hours
Method: (§1) MDA-MB-436 cells were placed in a complete DMEM medium (supplemented with 15% FBS; 10 μg/mL Insulin; 16 μg/mL Glutathione and 1% penicillin-streptomycin solution), and cultured at 37° C. under CO2-free conditions. The cells in the logarithmic growth phase were collected, the cell density was adjusted to 2×10^5 cells/well with the culture medium, and the cells were added to a 6-well cell culture plate at a volume of 1 mL/well. The compound to be tested was prepared to 2-fold the final concentration, 1 mL of the compounds at different concentrations were added to administration wells, a medium containing 0.2% DMSO was added to control wells, and the plate was incubated for 24 hours at 37° C. The cells were collected into a 1.5 mL centrifuge tube, 25 μL of RIPA lysis buffer (containing 1× protease inhibitor cocktail) was added, and the cells were lysed on ice for 15 minutes and centrifuged at 12000 rpm/min at 4° C. for 10 minutes. The supernatant was collected and the protein content was determined using the BCA method. The protein sample to be tested was diluted to 0.8 mg/mL, PARP1 was detected using a fully automated protein expression quantitative analyzer (ProteinSimple), and the internal reference protein was 3-actin (both antibodies were from CST). The software (Compass for SW) of the fully automated protein expression quantitative analyzer was used to process the raw data and calculate the peak area and the PARP1 expression rate relative to the control group.
as §1, with “L-15” for “DMEM”, “mL/well and cultured overnight. On day 2, the” for “mL/well. The”, “group. DC50 values were calculated using a four-parameter non-linear fitting model in Graphpad 8.3.0 software.” for “group.”

PARP1 [2] = target: T1, PARP1; test: PARP1 protein expression level in MDA-MB-231 cells; type: cell-based; details: 24 hours
Method: The cells were collected into a 1.5 mL centrifuge tube, 25 μL of RIPA lysis buffer (containing 1× protease inhibitor cocktail) was added, and the cells were lysed on ice for 15 minutes and centrifuged at 12000 rpm/min at 4° C. for 10 minutes. The supernatant was collected and the protein content was determined using the BCA method. […] DC50 values were calculated using a four-parameter non-linear fitting model in Graphpad 8.3.0 software.

[3] = system: breast tumor cells MDA-MB-436; test: MDA-MB-436 cell activity test (CellTiter-Glo, 7 days); type: cell-based, human; details: Homo sapiens
Method in brief: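 MDA-MB-436 cells in Leibovitz's L-15 + 10% FBS, 37° C. without CO2, seeded 4000 cells/well overnight, then treated with compound dilutions for 7 days. Viability by CellTiter-Glo luminescence; inhibition relative to solvent control and cell-free blank, IC50 from concentration-response.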

PARP2 = PARP2 (Homo sapiens (Human), UniProt Q9UGN5); test: PARP2 protein expression level in MDA-MB-436 cells; type: cell-based
Chain of PARP2 (Q9UGN5 whole entry): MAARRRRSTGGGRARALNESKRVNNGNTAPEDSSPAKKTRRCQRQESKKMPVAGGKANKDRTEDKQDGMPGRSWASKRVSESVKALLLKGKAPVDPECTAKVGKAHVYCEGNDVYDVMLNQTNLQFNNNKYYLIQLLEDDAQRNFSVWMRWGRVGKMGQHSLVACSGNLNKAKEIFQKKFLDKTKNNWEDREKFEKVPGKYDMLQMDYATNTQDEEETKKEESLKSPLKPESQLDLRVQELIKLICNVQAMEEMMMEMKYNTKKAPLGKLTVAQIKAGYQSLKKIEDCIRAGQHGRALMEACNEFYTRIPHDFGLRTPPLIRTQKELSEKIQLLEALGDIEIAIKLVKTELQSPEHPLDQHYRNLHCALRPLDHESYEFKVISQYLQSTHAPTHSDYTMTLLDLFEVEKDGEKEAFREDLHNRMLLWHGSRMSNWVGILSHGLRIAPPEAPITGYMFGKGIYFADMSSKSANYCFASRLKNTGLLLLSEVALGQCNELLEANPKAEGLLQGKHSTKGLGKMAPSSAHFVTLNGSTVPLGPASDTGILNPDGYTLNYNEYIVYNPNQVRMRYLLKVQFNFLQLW
Method: as §1, with “L-15” for “DMEM”, “mL/well and cultured overnight. On day 2, the” for “mL/well. The”, “The cells were collected into a 1.5 mL centrifuge tube, 25 μL of RIPA lysis buffer (containing 1× protease inhibitor cocktail) was added, and the cells were lysed on ice for 15 minutes and centrifuged at 12000 rpm/min at 4° C. for 10 minutes.” left out, “2” for “0.8”, “PARP2” for “PARP1”, “group. DC50 values were calculated using a four-parameter non-linear fitting model in Graphpad 8.3.0 software.” for “group.”

T1 sequence (P09874 whole entry): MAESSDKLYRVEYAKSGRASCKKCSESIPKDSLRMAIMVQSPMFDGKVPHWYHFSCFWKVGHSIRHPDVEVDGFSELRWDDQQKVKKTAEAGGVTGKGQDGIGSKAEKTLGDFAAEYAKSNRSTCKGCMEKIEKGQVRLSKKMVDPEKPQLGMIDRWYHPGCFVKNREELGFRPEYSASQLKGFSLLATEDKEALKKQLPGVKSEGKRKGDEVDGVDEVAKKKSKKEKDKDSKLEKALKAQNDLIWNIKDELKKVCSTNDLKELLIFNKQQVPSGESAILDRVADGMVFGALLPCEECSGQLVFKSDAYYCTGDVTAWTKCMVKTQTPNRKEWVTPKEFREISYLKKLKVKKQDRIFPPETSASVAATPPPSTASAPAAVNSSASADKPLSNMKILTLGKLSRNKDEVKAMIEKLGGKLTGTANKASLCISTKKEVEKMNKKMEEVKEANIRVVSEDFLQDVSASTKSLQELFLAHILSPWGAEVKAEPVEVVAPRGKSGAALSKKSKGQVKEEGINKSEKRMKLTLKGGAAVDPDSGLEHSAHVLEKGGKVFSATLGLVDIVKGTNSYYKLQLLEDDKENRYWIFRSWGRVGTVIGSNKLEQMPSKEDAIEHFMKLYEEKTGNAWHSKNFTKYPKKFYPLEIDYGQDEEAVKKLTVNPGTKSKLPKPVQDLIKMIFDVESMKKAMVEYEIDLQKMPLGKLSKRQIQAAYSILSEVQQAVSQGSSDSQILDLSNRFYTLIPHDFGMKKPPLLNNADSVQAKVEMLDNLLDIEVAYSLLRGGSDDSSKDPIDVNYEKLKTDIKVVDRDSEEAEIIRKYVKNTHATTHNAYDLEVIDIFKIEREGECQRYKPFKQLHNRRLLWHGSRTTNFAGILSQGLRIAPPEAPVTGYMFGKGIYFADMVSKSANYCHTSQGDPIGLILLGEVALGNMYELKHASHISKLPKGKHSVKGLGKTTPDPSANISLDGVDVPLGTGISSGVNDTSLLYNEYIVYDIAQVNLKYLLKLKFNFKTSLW

Question: Which “PARP1 degradation rate @ 100 nM” value (PARP1 [1]; 100 nM) does the source give for `CCc1cc2ncc(CN3CCN(c4ccc(C(=O)NC5CCN(c6ccc7c(c6)C(=O)N(C6CCC(=O)NC6=O)C7=O)CC5)nc4)CC3)cc2[nH]c1=O` (stereo not shown) [Compound 10, N-(1-(2-(2,6-dioxopiperidin-3-yl)-1,3-dioxoisoindolin-5-yl)piperidin-4-yl)-5-(4-((7-ethyl-6-oxo-5,6-dihydro-1,5-naphthyridin-3-yl)methyl)piperazin-1-yl)picolinamide] here?
Answer: The value was 79%.

Question: And the DC50 (PARP1 [1])?
Answer: The DC50 was 0.014 nM.

Question: What about the DC50 (PARP1 [2]) of the same compound?
Answer: The DC50 was 0.12 nM.

Question: What about the IC50 ([3]; MDA-MB-436, 168 h, MDA-MB-436 cells, 7 days incubation, read-out: IC50 (nM), MDA-MB-436 cell inhibitory activity) of the same compound?
Answer: The IC50 was 36 nM.

Question: What about the inhibition at 10 µM ([3]; MDA-MB-436, MDA-MB-436 cells, 10 μM, read-out: Max inh. % 10 μM) of the same compound?
Answer: The inhibition at 10 µM was 99.8%.

Question: What about the “PARP1 degradation selectivity over PARP2” value (PARP2) of the same compound?
Answer: Its value is “good PARP1 degradation selectivity”.

Question: What about the DC50 (PARP2; 24 hours) of the same compound?
Answer: Its DC50 is greater than 10000 nM.
